From ChEMBL document CHEMBL5543121, “Drug Repurposing of ACT001 to Discover Novel Promising Sulfide Prodrugs with Improved Safety and Potent Activity for Neutrophil-Mediated Antifungal Immunotherapy” (J Med Chem, 2024)
Active and inactive are the calls of the source. The calls are words filed in the database; no cut-off is given here.

Experiments:
[1] = system: Candida albicans; assay: Antifungal activity against candida albicans SC5314 infected in mouse assessed as reduction in PD-L1 positive Ly6G-positive neutrophils in kidney at 200 mg/kg, po administered on day 1 and 3; type: functional, organism-based; settings: time 1-3 day
[2] = Induction of apoptosis in mouse neutrophils assessed as live cells at 20 uM incubated for 16 hrs by Annexin V-FITC/PI staining based flow cytometry analysis (reference value: 46.6%); type: toxicity, cell-based, Neutrophil; settings: read-out: Activity
[3] = system: Neutrophil; assay: Induction of apoptosis in mouse neutrophils assessed as late apoptotic cells at 20 uM incubated for 16 hrs by Annexin V-FITC/PI staining based flow cytometry analysis (reference value: 24.4%); type: toxicity, cell-based
[4] = Induction of apoptosis in mouse neutrophils assessed as live cells at 40 uM incubated for 16 hrs by Annexin V-FITC/PI staining based flow cytometry analysis (reference value: 46.6%); type: toxicity, cell-based, Neutrophil; settings: read-out: Activity
[5] = system: Neutrophil; assay: Induction of apoptosis in mouse neutrophils assessed as late apoptotic cells at 40 uM incubated for 16 hrs by Annexin V-FITC/PI staining based flow cytometry analysis (reference value: 24.4%); type: toxicity, cell-based
[6] = system: Neutrophil; assay: Induction of apoptosis in mouse neutrophils assessed as dead cells at 40 uM incubated for 16 hrs by Annexin V-FITC/PI staining based flow cytometry analysis (reference value: 2.04%); type: toxicity, cell-based
[7] = Inhibition of fungal curdlan induced PD-L1 expression in mouse neutrophils assessed as reduction in PD-L1 positive Ly6G positive neutrophils incubated for 16 hrs by flow cytometry analysis; type: functional, cell-based; settings: Neutrophil
[8] = Cytotoxicity against mouse neutrophils assessed as reduction in cell viability incubated for 16 hrs by flow cytometry analysis; type: toxicity, cell-based, Neutrophil
[9] = AUC (0 to t) in male Sprague-Dawley rat at 10 mg/kg, po by LC-MS/MS analysis; type: ADME, organism-based; settings: in vivo
[10] = AUC (0 to infinity) in male Sprague-Dawley rat at 10 mg/kg, po by LC-MS/MS analysis; type: ADME, organism-based; settings: in vivo
[11] = Oral bioavailability in male Sprague-Dawley rat at 10 mg/kg by LC-MS/MS analysis; type: ADME, organism-based; settings: in vivo
[12] = Cmax in male Sprague-Dawley rat at 2 mg/kg, iv by LC-MS/MS analysis; type: ADME, organism-based; settings: in vivo
[13] = Half life in male Sprague-Dawley rat at 2 mg/kg, iv by LC-MS/MS analysis; type: ADME, organism-based; settings: in vivo
[14] = AUC (0 to t) in male Sprague-Dawley rat at 2 mg/kg, iv by LC-MS/MS analysis; type: ADME, organism-based; settings: in vivo
[15] = AUC (0 to infinity) in male Sprague-Dawley rat at 2 mg/kg, iv by LC-MS/MS analysis; type: ADME, organism-based; settings: in vivo
[16] = system: Candida albicans; assay: Induction of neutrophil-mediated antifungal immunity against Candida albicans SC5314 infected in mouse assessed as reduction in PD-L1 positive Ly6G positive neutrophils in bone marrow at 50 to 100 mg/kg, po administered once a day for 3 days by flow cytometry analysis; type: functional, organism-based; settings: dose 50-100 mg/kg, time 3.0 day
[17] = system: Neutrophil; assay: Induction of neutrophil-mediated antifungal immunity against Candida albicans SC5314 infected in mouse assessed as increase in neutrophil infiltration in kidney at 50 to 100 mg/kg, po administered once a day for 3 days; type: functional, organism-based; settings: dose 50-100 mg/kg, time 3.0 day
[18] = system: Candida albicans; assay: Induction of neutrophil-mediated antifungal immunity against Candida albicans SC5314 infected in mouse assessed as reduction in fungal burden in kidneys at 50 to 100 mg/kg, po administered once a day for 3 days; type: functional, organism-based; settings: dose 50-100 mg/kg, time 3.0 day
[19] = system: Candida albicans; assay: Induction of neutrophil-mediated antifungal immunity against Candida albicans SC5314 infected in mouse assessed as reduction in fungal clusters in kidney at 50 to 100 mg/kg, po administered once a day for 3 days by PAS staining based analysis; type: functional, organism-based; settings: dose 50-100 mg/kg, time 3.0 day
[20] = system: Candida albicans; assay: Induction of neutrophil-mediated antifungal immunity against Candida albicans SC5314 infected in cyclophosphamide-induced immunosuppressed C57BL/6 mouse at 50 to 100 mg/kg, po pretreated with CTX for 3 days followed by fungal infection and further administered with compound once a day for 3 days; type: functional, organism-based; settings: dose 50-100 mg/kg, time 3.0 day
[21] = biological target: Signal transducer and activator of transcription 3 (Mus musculus) (UniProt P42227); assay: Inhibition of biotinylated ACT001 probe binding to STAT3 in mouse bone marrow neutrophils at 100 uM by pulldown based Western blot analysis; type: cell-based; settings: Neutrophil
[22] = Acute toxicity in C57BL/6 mouse assessed as animal death at 500 mg/kg, po administered as single dose and measured every day for 14 days; type: organism-based; settings: in vivo, 336 h, time 14 day
[23] = Acute toxicity in C57BL/6 mouse assessed as abnormal behavior at 500 mg/kg, po administered as single dose and measured every day for 14 days; type: organism-based; settings: in vivo, 336 h, time 14 day
[24] = Acute toxicity in C57BL/6 mouse assessed as body weight loss at 500 mg/kg, po administered as single dose and measured every day for 14 days; type: organism-based; settings: in vivo, 336 h, time 14 day
[25] = Acute toxicity in C57BL/6 mouse assessed as change in liver weight at 500 mg/kg, po administered as single dose and measured after 14 days; type: organism-based; settings: in vivo, 336 h, time 14 day
[26] = Acute toxicity in C57BL/6 mouse assessed as change in lung weight at 500 mg/kg, po administered as single dose and measured after 14 days; type: organism-based; settings: in vivo, 336 h, time 14 day
[27] = Acute toxicity in C57BL/6 mouse assessed as histopathological changes in liver at 500 mg/kg, po administered as single dose and measured after 14 days; type: organism-based; settings: in vivo, 336 h, time 14 day
[28] = Acute toxicity in C57BL/6 mouse assessed as histopathological changes in spleen at 500 mg/kg, po administered as single dose and measured after 14 days; type: organism-based; settings: in vivo, 336 h, time 14 day
[29] = Acute toxicity in C57BL/6 mouse assessed as histopathological changes in lung at 500 mg/kg, po administered as single dose and measured after 14 days; type: organism-based; settings: in vivo, 336 h, time 14 day
[30] = Acute toxicity in C57BL/6 mouse assessed as histopathological changes in kidney at 500 mg/kg, po administered as single dose and measured after 14 days; type: organism-based; settings: in vivo, 336 h, time 14 day
[31] = Subacute toxicity in C57BL/6 mouse assessed as change in liver weight at 100 mg/kg, po administered daily for 14 days; type: organism-based; settings: in vivo, 336 h, time 14 day
[32] = Subacute toxicity in C57BL/6 mouse assessed as histopathological changes in liver at 100 mg/kg, po administered daily for 14 days; type: organism-based; settings: in vivo, 336 h, time 14 day
[33] = Subacute toxicity in C57BL/6 mouse assessed as histopathological changes in spleen at 100 mg/kg, po administered daily for 14 days; type: organism-based; settings: in vivo, 336 h, time 14 day
[34] = Subacute toxicity in C57BL/6 mouse assessed as histopathological changes in lung at 100 mg/kg, po administered daily for 14 days; type: organism-based; settings: in vivo, 336 h, time 14 day
[35] = Subacute toxicity in C57BL/6 mouse assessed as histopathological changes in kidney at 100 mg/kg, po administered daily for 14 days; type: organism-based; settings: in vivo, 336 h, time 14 day
[36] = Acute toxicity in C57BL/6 mouse assessed as effect on urea level in serum at 500 mg/kg, po administered as single dose and measured every day for 14 days; type: organism-based; settings: in vivo, 336 h, time 14 day
[37] = Subacute toxicity in C57BL/6 mouse assessed as effect on creatinine level in serum at 100 mg/kg, po administered daily for 14 days and measured every day; type: organism-based; settings: in vivo, 336 h, time 14 day
[38] = Subacute toxicity in C57BL/6 mouse assessed as effect on ALT level in serum at 100 mg/kg, po administered daily for 14 days and measured every day; type: organism-based; settings: in vivo, 336 h, time 14 day

Signal transducer and activator of transcription 3 (Mus musculus), sequence (P42227 whole entry): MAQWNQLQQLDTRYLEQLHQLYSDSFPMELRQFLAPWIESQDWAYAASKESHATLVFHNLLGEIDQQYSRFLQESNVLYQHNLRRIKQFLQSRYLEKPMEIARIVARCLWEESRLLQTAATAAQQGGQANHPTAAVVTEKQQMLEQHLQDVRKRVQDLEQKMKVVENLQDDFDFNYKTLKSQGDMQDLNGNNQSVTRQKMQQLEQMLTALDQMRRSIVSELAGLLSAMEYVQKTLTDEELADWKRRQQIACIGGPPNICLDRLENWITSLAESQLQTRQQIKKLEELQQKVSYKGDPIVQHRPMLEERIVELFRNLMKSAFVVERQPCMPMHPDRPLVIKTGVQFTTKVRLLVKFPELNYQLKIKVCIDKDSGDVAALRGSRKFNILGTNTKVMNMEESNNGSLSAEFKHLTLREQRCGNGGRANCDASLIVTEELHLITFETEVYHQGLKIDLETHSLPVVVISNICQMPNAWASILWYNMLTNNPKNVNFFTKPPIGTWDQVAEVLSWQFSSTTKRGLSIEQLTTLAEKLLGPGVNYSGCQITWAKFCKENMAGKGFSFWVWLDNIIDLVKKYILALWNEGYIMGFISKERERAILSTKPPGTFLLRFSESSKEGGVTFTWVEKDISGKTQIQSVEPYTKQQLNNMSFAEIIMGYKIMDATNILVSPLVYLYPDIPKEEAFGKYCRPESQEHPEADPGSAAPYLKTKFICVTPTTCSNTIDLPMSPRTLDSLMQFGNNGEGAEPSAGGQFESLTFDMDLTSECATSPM

In the case of `C[C@@]1(O)CC[C@]23O[C@@]2(C)CC[C@@H]2[C@H](OC(=O)[C@H]2CS(=O)(=O)c2c(Cl)cccc2Cl)[C@@H]13`, the Activity [1] is reported as “Active”, the viability at 16 h, 20 µM [2] is reported as 41.4% and the Activity [3] is reported as 27%. It also gave a viability at 16 h, 40 µM [4] of 38%, an Activity [5] of 30.8% and an Activity [6] of 2.72%. The IC50 [7] was 3.76 µM, the IC50 at 16 h [8] was greater than 320 µM and the AUC(0-t) [9] was 167 ng·h/mL. For the same compound, the AUC(0-inf) [10] was 182 ng·h/mL, the bioavailability [11] was 45.1% and the Cmax [12] was 175 ng/mL. The half-life [13] was 10.2 min, the AUC(0-t) [14] was 73.9 ng·h/mL and the AUC(0-inf) [15] was 75.4 ng·h/mL. For the same compound, the Activity [16] was “Active”, the Activity [17] was “Active” and the Activity [18] was “Active”. The Activity [19] was “Active”, the Activity [20] was “inactive” and the inhibition [21] was “Active”. For the same compound, the Activity [22] was “Non-Toxic”, the Activity [23] was “Non-Toxic” and the Activity [24] was “Non-Toxic”. For the same compound, the Activity [25] was “Non-Toxic”, the Activity [26] was “Non-Toxic” and the Activity [27] was “Non-Toxic”. The Activity [28] was “Non-Toxic”, the Activity [29] was “Non-Toxic” and the Activity [30] was “Non-Toxic”. For the same compound, the Activity [31] was “Non-Toxic”, the Activity [32] was “Non-Toxic” and the Activity [33] was “Non-Toxic”. For the same compound, the Activity [34] was “Non-Toxic”, the Activity [35] was “Non-Toxic” and the Activity [36] was “Non-Toxic”. The Activity [37] was “Non-Toxic” and the Activity [38] was “Non-Toxic”.
